Measurements published in US9724408B2, “Compositions and methods for activating stimulator of interferon gene-dependent signalling” (ADURO BIOTECH, INC., priority 2013, dated 2017).

Legend:
4T1 = test: Re-challenge of surviving mice with 4T1 tumor cells on the contralateral flank; format: in vivo, BALB/c mice
Procedure: (§1) To determine whether the synthetic derivative CDN molecules elicit durable and effective anti-tumor T-cell immunity, 6-8 week old female BALB/c mice (8 mice per group) were implanted with CT26 colon carcinoma cells (1×10^5 cells in 100 μL PBS). Mice were treated with Rp, Rp dithio cyclic [A(2′,5′)pA(3′,5′)p] (ML RR-CDA) compound ([…] in a total volume of 40 μL HBSS) or HBSS vehicle control, and tumor growth was monitored as per previous example. Mice were bled on day 18 post tumor implantation and PBMCs were isolated by Ficoll gradient (Miltenyi Biotech). 5×10^4 PBMCs were stimulated overnight in an IFNγ ELISpot assay with media alone (unstimulated), or with 1 μM of the endogenous H-2 L^d-restricted tumor rejection antigen AH1 peptide in the presence of 1×10^5 naïve splenocytes as feeder cells. IFN-γ ELISpot plates were developed and quantified using a CTL plate reader and ImmunoSpot software. On day 55 post tumor implantation, surviving mice and age-matched naïve control mice were implanted on the contralateral flank with either CT26 or 4T1 (both 1×10^5 cells in 100 μL PBS) tumor cells (4 mice per group), and monitored for tumor growth. […]

[1] = tested on: CT26 colon carcinoma cells; test: Abscopal model, CT26 tumors on contralateral flanks, primary tumor injected; format: in vivo, BALB/c mice; settings: 50 μg into the primary tumor only, three injections
From the text: The STING-dependent induction of tumor-specific T cell immunity protects animals against subsequent challenge with the autologous tumor. It will be apparent to those skilled in the art that advanced cancer is metastatic, and that to be effective, therapies must inhibit outgrowth of distal masses. Treatment of one or selected lesions that inhibits tumor outgrowth of distal untreated tumor masses is known as an abscopal effect. To test whether IT injection of a selected tumor with synthetic CDN derivative molecules inhibited the tumor outgrowth of a distal untreated tumor, (A) CT26 colon carcinoma cells (1×10^5 cells in 100 μL PBS) and (B) 4T1 mammary carcinoma cells (1×10^5 cells in 100 μL PBS) were implanted subcutaneously on the contralateral flanks of 6-8 week old female BALB/c mice (8 mice per group). Treatments began when tumors reached a volume of approximately 75 mm^3, on day 13 post tumor implantation. The Rp, Rp dithio cyclic [A(2′,5′)pA(3′,5′)p] (ML RR-CDA) compound (50 μg in a total volume of 40 μL HBSS), or HBSS vehicle control, was administered by subcutaneous injection into the center of the primary (right side) tumor only using a 27 gauge needle. Injections were repeated every three days, for a total of three intratumoral injections.

B16 melanoma cells = test: Abscopal model, B16 flank tumor plus intravenous B16 lung colonization; format: in vivo, C57BL/6 mice; settings: three injections
Procedure: To determine whether the synthetic CDN derivative molecules promote abscopal anti-tumor immunity in an alternative tumor model and mouse genetic background, 6-8 week old female C57BL/6 mice (8 mice per group) were implanted with B16 melanoma cells (5×10^4 cells in 100 μL PBS) in the right flank. One week later mice were implanted intravenously with 1×10^5 B16 melanoma cells to colonize the lung, along with a group of naïve age-matched control mice. When the subcutaneous flank tumor reached approximately 75 mm^3 on day 13, mice were treated intratumorally with Rp, Rp dithio cyclic [A(2′,5′)pA(3′,5′)p] (ML RR-CDA) (50 μg in a total volume of 40 μL HBSS) or HBSS vehicle control, for three injections as per previous protocol. On day 28 post subcutaneous tumor implantation (day 21 post i.v. implantation), mice were euthanized and lungs were harvested and fixed (10% Neutral Buffered Formalin), and the number of lung tumor nodules counted using a dissecting microscope.

CT26 = test: Re-challenge of surviving mice with CT26 tumor cells on the contralateral flank; format: in vivo, BALB/c mice
Procedure: as §1

hSTING (REF) = target: T1, hSTING (REF) (Homo sapiens, UniProt Q86WV6); test: IFNβ-LUC reporter in HEK293T cells expressing hSTING (REF); format: cell-based; settings: 10 μM, digitonin permeabilization, 6 hrs, FIG. 14
T1 construct: GFP; expressed in transfected cells; plasmid from the Vance Laboratory, UC Berkeley
Procedure: MSCV2.2 plasmids encoding hSTING(REF)-GFP, hSTING(WT)-GFP, hSTING(HAQ)-GFP, hSTING(Q)-GFP and mSTING(WT)-GFP were obtained from the Vance Laboratory at UC Berkeley. hSTING(AQ)-GFP was derived from hSTING(Q)-GFP using a QuickChange Site-Directed Mutagenesis kit (Stratagene). […] 1×10^4 HEK293T STING cells were seeded in 96-well plates and transiently transfected (using Lipofectamine 2000) with 50 ng of a human IFN-β reporter plasmid (pLuc-IFN-β) expressing the human IFN-β promoter upstream of a luciferase reporter and 10 ng of TK-renilla for normalization. 24 hours later, cells were stimulated with native and synthetic CDN derivative molecules using digitonin permeabalization to ensure uniform uptake. Each STING cell line was stimulated with 10 μM of cyclic [G(3′,5′)pA(3′,5′)p] (cGAMP), cyclic [G(2′,5′)pA(3′,5′)p] […] (RR-CDA), cyclic [A(2′,5′)pA(3′,5′)p] […] (RR-CDG), cyclic [G(2′,5′)pG(3′,5′)p] […] (ML RR-CDG) in 25 ul digitonin buffer (50 mM HEPES, 100 mM KCL, 3 mM MgCl2, 0.1 mM DTT, 85 mM Sucrose, 0.2% BSA, 1 mM ATP, 0.1 mM GTP, 10 ug/ml digitonin). After 20 min, the stimulation mixtures were removed and 200 ul of standard RPMI media was added. After stimulation for 6 hrs, cell lysates were prepared and reporter gene activity measured using the Dual Luciferase Assay System (Promega) on a Spectramax M3 luminometer.

[2] = re-challenge on day 35 post tumor implantation, FIG. 22B
[3] = re-challenge on day 55 post tumor implantation, FIG. 21C

T1 sequence (Q86WV6 whole entry): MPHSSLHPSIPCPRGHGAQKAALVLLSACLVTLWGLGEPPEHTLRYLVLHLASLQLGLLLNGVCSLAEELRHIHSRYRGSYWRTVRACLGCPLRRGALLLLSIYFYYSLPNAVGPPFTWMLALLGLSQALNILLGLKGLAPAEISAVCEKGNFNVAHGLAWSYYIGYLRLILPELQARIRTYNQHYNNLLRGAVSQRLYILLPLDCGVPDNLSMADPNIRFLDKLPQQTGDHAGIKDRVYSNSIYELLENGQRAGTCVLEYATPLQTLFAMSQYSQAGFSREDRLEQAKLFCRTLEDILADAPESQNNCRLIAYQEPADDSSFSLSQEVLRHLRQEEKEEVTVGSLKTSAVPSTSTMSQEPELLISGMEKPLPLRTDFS

Row | Structure (SMILES) | protection against 4T1 re-challenge, survivors of 4T1 tumors (4T1; [2]) | protection against 4T1 re-challenge, survivors of CT26 tumors (4T1; [3]) | inhibition of the treated primary tumor, CT26 ([1]; FIG. 23A) | outgrowth of the contralateral (untreated) tumor, CT26 ([1]; P=0.0011, FIG. 23A) | growth of distal lung tumor nodules (B16 melanoma cells; 50 μg into the flank tumor, lungs on day 28, FIG. 24B, 24C) | tumor growth of the primary flank tumor (B16 melanoma cells; 50 μg intratumoral, P<0.001, FIG. 24A) | protection against CT26 re-challenge, survivors of 4T1 tumors (CT26; [2]) | protection against CT26 re-challenge, survivors of CT26 tumors (CT26; [3]) | IFNβ reporter response of hSTING (REF) (hSTING (REF))
1 | Nc1ncnc2c1ncn2[C@@H]1O[C@@H]2COP(O)(=S)O[C@@H]3C(O)[C@@H](COP(O)(=S)O[C@H]2[C@H]1O)O[C@H]3n1cnc2c(N)ncnc21 (stereo partly drawn) [ML RR-CDA, dithio-[RP, RP]-cyclic-[A(2′,5′)pA(3′,5′)p]] | complete protection | not inhibiting growth of the 4T1 tumor type | complete inhibition of the treated primary tumor | significantly inhibited | significantly inhibited the growth of distal lung tumor nodules | significantly inhibited tumor growth of the primary flank tumor | complete protection | complete protection against the same CT26 tumor type | –
2 | Nc1nc2c(ncn2[C@@H]2O[C@@H]3CO[P@@](O)(=S)O[C@@H]4[C@H](O)[C@@H](CO[P@@](O)(=S)O[C@H]3[C@H]2O)O[C@H]4n2cnc3c(=O)[nH]c(N)nc32)c(=O)[nH]1 [ML RR-CDG, dithio-[RP,RP]-cyclic-[G(2′,5′)pG(3′,5′)p]] | – | – | – | – | – | – | – | – | responsive to stimulation
